This passage reports polarity index and absorption maximum results from patent US12090220B2, “Efficient sunscreen compositions with diethylamino hydroxybenzoyl hexyl benzoate, butyl methoxydibenzoylmethane and organic particulate UV filter” (BASF SE, priority 2019, dated 2024).

Where a name gives a salt, the structure may show the parent alone.

One data set is described as follows: Measurement of interfacial tension (polarity index) of emollients. As to conditions: interfacial tension emollient/water, Tensimat Densimat TD2000. The format is physicochemical. The text has this: The term “polarity index” refers to non-polar or polar oils. Non-polar oils are mainly based on hydrocarbons and lack an electronegative element, such as oxygen. In contrast, polar oils contain heteroatoms that differ in electronegativity, which results in a dipole moment. However, such oils are still insoluble in water, i.e. hydrophob. The polarity index can be determined by measuring the interfacial tension between the respective oil and water.
Interfacial tension of the respective emollients as listed below was measured using a Tensimat Densimat TD2000.
`CCCCOC(=O)CCCCC(=O)OCCCC` [dibutyl adipate] returned a polarity index of 14 mN/m.
Same read-out and setting: for `CC(C)OC(=O)CCCCC(=O)OC(C)C` [diisopropyl adipate] the value was 12 mN/m.
For `CC(C)OC(=O)CCCCCCCCC(=O)OC(C)C` [diisopropyl sebacate], the polarity index is 19 mN/m.
Same read-out and setting: the same measure for `CCCCCCCCCCC(CO)CCCCCCCC` (centres unmarked) [octyldodecanol]: 25 mN/m; for `O=C(OCCc1ccccc1)c1ccccc1` [phenethyl benzoate]: 19 mN/m; for `CCCCOC(=O)CC(O)(CC(=O)OCCCC)C(=O)OCCCC` [tributyl citrate]: 10 mN/m.
As for `CCOC(=O)CC(O)(CC(=O)OCC)C(=O)OCC` [triethyl citrate], the polarity index stood at 7 mN/m.

Assay in a further data set: not given
As to conditions: general description of the UV filter; cited from earlier work.
Turning to `COc1ccc(C(=O)CC(=O)c2ccc(C(C)(C)C)cc2)cc1` [BMDBM, 1-(4-(1,1-dimethylethyl)phenyl)-3-(4-methoxyphenyl)propane-1,3-dione], the absorption maximum is on record as 357 nm.
Consider `CCCCCCOC(=O)c1ccccc1C(=O)c1ccc(N(CC)CC)cc1O` [DHHB, hexyl 2-[4-(diethylamino)-2-hydroxybenzoyl]benzoate], for which the absorption maximum was 354 nm.
Take `CCCCC(CC)COC(=O)/C=C/c1ccc(OC)cc1` (centres unmarked) [ethylhexyl methoxy cinnamate, 2-Ethylhexyl-(2E)-3-(4-methoxyphenyl)acrylate]: the absorption maximum was 310 nm.
Regarding `c1ccc(-c2ccc(-c3nc(-c4ccc(-c5ccccc5)cc4)nc(-c4ccc(-c5ccccc5)cc4)n3)cc2)cc1` [tris-biphenyl triazine, 2,4,6-Tris(biphenyl-4-yl)-1,3,5-triazine], the absorption maximum is 310 nm.
